The values below come from US6855726B1, “Quinolones as serine protease inhibitors” (Warner-Lambert Company LLC, priority 1998, dated 2005).

The conditions of experiment [1]: rat arteriovenous shunt and venous stasis models; Wong et al. 1996; cited from earlier work.
Experiment [2] addresses T1, human factor Xa (Homo sapiens, UniProt P00742).
T1 construct: human factor Xa (1 nM final, Enzyme Research Laboratories); purchased Enzyme Research Laboratories
Briefly: Determination of factor Xa IC50 (chromogenic substrate S2765). It counts as biochemical. As for the experimental part:
The ability of compounds to act as inhibitors of human factor Xa catalytic activity is assessed by determination of that concentration of test substance that inhibits by 50% (IC50) the ability of human factor Xa to cleave the chromogenic substrate S2765 (N-CBz-D-Arg-L-Gly-L-Arg-p-nitroanilide. 2HCl, DiaPharma). Typically, 145 μL human factor Xa (1 nM final, Enzyme Research Laboratories) in 10 mM HEPES, 150 mM NaCl, 0.1% BSA, pH 7.4 (HBSA buffer) and 5 μL of test substance in DMSO (2% final) are incubated for 60 minutes at room temperature. Following preheating to 37° C. for 5 minutes, to this mixture is added […] of S2765 in HBSA buffer. The velocity of S2765 hydrolysis is determined at 37° C. by measuring the initial rate of change of the optical density at OD405 nm every 10 seconds for 5 minutes using a ThermoMax®D Kinetic Microplate Reader.

The target in experiment [3] is T2, human thrombin (Homo sapiens, UniProt P00734).
T2 construct: purchased Enzyme Research Laboratories
Briefly: Determination of thrombin IC50 (chromogenic substrate Chromozym TH). It counts as biochemical. As for the experimental part:
The ability of compounds to act as inhibitors of human thrombin catalytic activity is assessed by determination of that concentration of test substance that inhibits by 50% (IC50) the ability of human thrombin to cleave the chromogenic substrate Chromozym TH (Tosyl-Gly-Pro-Arg-pNA*Ac, Boehringer Mannheim). Typically, 145 μL human thrombin (0.75 nM, Enzyme Research Laboratories) in a HPB buffer (10 mM HEPES, 100 mM NaCl, 0.05% BSA, 0.1% PEG-8000, pH 7.4) and 5 μL of test substance in DMSO (2% final) are incubated for 60 minutes at room temperature. Following preheating to 37° C. for 5 minutes, to this mixture is added 100 μL of Chromozym TH in HPB buffer. The velocity of Chromozym TH hydrolysis is determined at 37° C. by measuring the initial rate of change of the optical density at OD405 nm every 10 seconds for 5 minutes using a ThermoMax® Kinetic Microplate Reader.

Experiment [4] has as its target human trypsin (Homo sapiens, UniProt P07477). As to the kind of experiment: Determination of trypsin IC50 (chromogenic substrate S2222). It counts as biochemical. As for the experimental part: The ability of compounds to act as inhibitors of human trypsin catalytic activity is assessed by determination of that concentration of test substance that inhibits by 50% (IC50) the ability of human trypsin to cleave the chromogenic substrate S2222 (N-Bz-L-Ile-L-Glu-L-Gly-L-Arg-p-nitroanilide. HCl, DiaPharma). Typically, 145 μL human trypsin (0.5 nM final) in 10 mM HEPES, 150 mM NaCl, 0.1% BSA, and 5 μL of the test substance in DMSO (2% final) are incubated for 60 minutes at room temperature. Following preheating to 37° C. for 5 minutes, to this mixture is added 100 μL of S2222 in HBSA buffer (100 μM final), and the velocity of S2222 hydrolysis is determined at 37° C. by measuring the optical density at OD405 nm every 10 seconds over 5 minutes using a ThermoMax® Kinetic Microplate Reader.

For experiment [5] the following is noted: canine coronary artery, electrolytic lesion model; Lynch et al., Schaffer et al.; cited from earlier work.
For experiment [6] the following is noted: dog, adjunct to recombinant tissue plasminogen activator; Mellott et al. 1993; cited from earlier work.
For experiment [7] the following is noted: rabbit venous thrombosis; Fioravanti et al. 1993; cited from earlier work.
For experiment [8] the following is noted: various models of arterial and venous thrombosis; Lapatto et al. 1997; cited from earlier work.

T1 sequence (P00742 235-488 limits assumed): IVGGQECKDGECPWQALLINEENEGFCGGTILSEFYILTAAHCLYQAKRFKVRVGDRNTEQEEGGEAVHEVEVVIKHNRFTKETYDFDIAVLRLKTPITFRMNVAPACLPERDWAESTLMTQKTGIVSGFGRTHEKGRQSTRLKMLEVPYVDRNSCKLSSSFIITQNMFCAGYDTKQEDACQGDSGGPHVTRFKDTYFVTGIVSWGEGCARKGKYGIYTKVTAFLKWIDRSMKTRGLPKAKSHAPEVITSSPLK
T1 sequence (P00742 41-179 partner limits assumed): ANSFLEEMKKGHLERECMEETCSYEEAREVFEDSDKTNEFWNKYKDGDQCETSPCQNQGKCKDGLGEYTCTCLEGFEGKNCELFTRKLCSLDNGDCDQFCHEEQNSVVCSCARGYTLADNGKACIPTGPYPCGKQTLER

As to `CC(=N)N1CC[C@H](Oc2ccc([C@H](Cc3ccc4ccc(C(=N)N)cc4c3)C(=O)O)cc2)C1` [DX9065a], in experiment [1], the “inhibition of thrombus formation” value is on record as “inhibition of thrombus formation was achieved at doses that had little effect on APTT”.

With `C[C@@H]1CCC[C@H](C)N1CCCCCN1C(=O)C(c2cc(C(=N)N)ccc2O)Cc2ccccc21` (stereo partly drawn) [Example 2, 3-(1-5-[(2R,6S)-2,6-dimethyltetrahydro-1(2H)-pyridinyl]pentyl-2-oxo-1,2,3,4-tetrahydro-3-quinolinyl)-4-hydroxybenzenecarboximidamide], the IC50 in experiment [2] was 20 nM; in experiment [3] it was 1140 nM; in experiment [4] it was 562 nM.

Regarding “rTAP: recombinant tick anticoagulant peptide, a protein or polypeptide factor Xa inhibitor (YNRLCIKPRDWIDECDSNEGGERAYFRNGKGGCDSFWICPEDHTGADYYSSYRDCFNACI; UniProt P17726 1-60, looked up)”, the “thrombus mass and time to occlusion” value in experiment [5] was “reduce thrombus mass and time to occlusion”. Besides, in experiment [6], the “clot lysis and acute reocclusion” value is “accelerate the recombinant tissue plasminogen activator mediated clot lysis and prevent acute reocclusion”. Besides, the fibrin deposition entry in experiment [7] was “reduce fibrin deposition”.

B1: Antistasin: a potent inhibitor of blood coagulation factor Xa, from the Mexican leech Haementeria officinalis (protein, UniProt P15358 18-136, looked up)
Antistasin: QGPFGPGCEEAGCPEGSACNIITDRCTCSGVRCRMHCPHGFQRSRYGCEFCKCRLEPMKATCDISECPEGMMCSRLTNKCDCKIDINCRKTCPNGLKRDKLGCEYCECRPKRKLIPRLS
As to B1, in experiment [8], the antithrombotic activity result was “displays antithrombotic activity”.

For orientation: IC50 means the concentration that inhibits the measured activity by half. The low end stands for inhibition by little substance, the high end for a need for much substance.
